{"source": "patent US20110172230A1", "about": "“UREA COMPOUND OR SALT THEREOF” (priority 2006, published 2011)", "note": "Structures can show the parent of a compound that is named as a salt.", "data": [{"target": "T1, FAAH (Rattus norvegicus, UniProt P97612)", "T1 construct": "the rat brain homogenate was diluted so that its protein concentration could be 60 μg/ml, thereby preparing an enzyme solution; from tissue; host or cells: rat cerebrum (SD-line male rat, 10 weeks) homogenate, 15000 x g pellet", "T1 sequence (P97612 1-579)": "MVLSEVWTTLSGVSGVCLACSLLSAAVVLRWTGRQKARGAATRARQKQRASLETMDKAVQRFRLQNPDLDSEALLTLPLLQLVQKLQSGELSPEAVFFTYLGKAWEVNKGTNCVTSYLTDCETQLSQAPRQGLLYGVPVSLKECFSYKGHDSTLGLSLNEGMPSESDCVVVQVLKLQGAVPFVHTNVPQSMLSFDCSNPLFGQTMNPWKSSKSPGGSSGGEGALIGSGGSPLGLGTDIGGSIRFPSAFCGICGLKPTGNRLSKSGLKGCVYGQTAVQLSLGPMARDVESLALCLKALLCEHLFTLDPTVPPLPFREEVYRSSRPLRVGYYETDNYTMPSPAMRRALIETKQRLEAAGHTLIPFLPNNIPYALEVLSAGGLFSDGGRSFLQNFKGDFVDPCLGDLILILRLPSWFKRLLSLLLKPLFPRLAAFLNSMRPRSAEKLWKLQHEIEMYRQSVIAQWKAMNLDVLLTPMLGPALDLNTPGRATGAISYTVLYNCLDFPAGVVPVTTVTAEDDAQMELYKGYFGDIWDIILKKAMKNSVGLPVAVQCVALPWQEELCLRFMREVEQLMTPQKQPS", "assay": "Screening for an FAAH activity inhibiting substance using a rat brain homogenate (IC50)", "type": "biochemical", "conditions": "radiolabeled anandamide substrate, 1 hour", "method": "Screening for an FAAH Activity Inhibiting Substance Using a Rat Brain Homogenate\n(1) Preparation of a Rat Brain Homogenate\nThe head of a 10-week-old SD-line male rat (Japan SLC., Inc.) was cut off, and its cerebrum was taken out and weighed. Five times by volume its weight of an ice-cooled buffer (50 mM Tris-HCl (pH 7.4), 0.32 M sucrose) was added, and this was homogenized with a homogenizer in ice to give a uniform suspension. This was centrifuged (1500×g, 4° C., 15 minutes), and the supernatant was again centrifuged (15000×g, 4° C., 20 minutes) to obtain a precipitate. Further, using an ultrasonic wave generator (UR-20P, TOMY SEIKO CO., LTD.), this was ultrasonicated (power dial 4) for 5 seconds. The protein concentration of the resulting homogenate was measured according to a dye-coupling method (protein assay CBB solution, NACALAI TESQUE, INC.). Using a buffer (50 mM Tris-HCl (pH 8.0), 1 mM EDTA, 0.1 mg/ml BSA, 100 mM NaCl), the rat brain homogenate was diluted so that its protein concentration could be 60 μg/ml, thereby preparing an enzyme solution.\n(2) Screening for an FAAH Activity Inhibiting Substance\nA substrate solution was prepared, comprising 2 μCi/ml radiolabeled anandamide (Anandamide [ethanolamine 1-^3H] (American Radiolabeled Chemical)), 8 μM anandamide (Funakoshi), 50 mM Tris-HCl (pH 8.0), 1 mM EDTA, 0.1 mg/ml BSA and 100 mM NaCl. Test substance solutions were prepared, dissolved in DMSO to have a concentration from 1 nM to 100 μM. 50 μl of the substrate solution and 1 μl of the test substance solution were added to 50 μl of the enzyme solution, and left for 1 hour. As a control, DMSO was added in place of the test substance solution. To this, added was 200 μl of a 1:1 (ratio by volume) solution of chloroform/methanol, followed by vortexing. This was centrifuged (15000 rpm, 2 minutes), whereby the decomposed product ethanolamine (ethanolamine 1-^3H) was separated in the upper layer (water/methanol layer) and the unreacted radiolabeled anandamide (Anandamide [ethanolamine 1-^3H]) was in the lower layer (chloroform layer). 30 μl of the upper layer was transferred into a 96-well organic solvent-resistant white microplate (PicoPlate-96; Perkin Elmer, Inc.), 150 μl of Microscint-20 (Perkin Elmer, Inc.) was added thereto, and this was measured with a microplate scintillation counter (TopCount™; Beckman Coulter, Inc.). As compared with the control, the substance that gave a decreased value was selected as an FAAH activity-inhibiting substance.\n(3) Measurement of the IC50 Value of the FAAH Activity Inhibiting Substance\nThe compound was dissolved in DMSO to have a varying concentration from 1 nM to 100 μM to prepare test substance solutions. According to the method mentioned above, the compound was analyzed for its influence on FAAH activity. As a control, DMSO was used. A measured value of a case where a buffer (50 mM Tris-HCl (pH 8.0), 1 mM EDTA, 0.1 mg/ml BSA, 100 mM NaCl) was reacted in place of the enzyme solution was subtracted from every measured value. Based on the measured value of the control, 100%, the IC50 value of the test substance was determined. Furthermore, Ex represents the Example No. as denoted below.", "units": {"IC50": "nM"}, "values": [{"smiles": "O=C(Nc1cccnc1)N1CCN(Cc2ccnc(OCCC3CCCCC3)c2)CC1", "note": "[Example 30, 4-{[2-(2-cyclohexylethoxy)pyridin-4-yl]methyl}-N-pyridin-3-ylpiperazine-1-carboxamide trihydrochloride]", "IC50": 30}, {"smiles": "O=C(Nc1cnccn1)N1CCN(C(=O)c2ccnc(OCCC3CCCCC3)c2)CC1", "note": "[Example 38, 4-[2-(2-cyclohexylethoxy)isonicotinoyl]-N-pyrazin-2-ylpiperazine-1-carboxamide]", "IC50": 5}, {"smiles": "O=C(Nc1ncccn1)N1CCN(C(=O)c2cccc(OCCC3CCCCC3)c2)CC1", "note": "[Example 155]", "IC50": 25}, {"smiles": "O=C(Nc1cnccn1)N1CCN(C(=O)c2cccc(OCCC3CCCCC3)c2)CC1", "note": "[Example 210]", "IC50": 3.3}, {"smiles": "CN(CCC1CCCCC1)c1ccc(C(=O)N2CCN(C(=O)Nc3cccnc3)CC2)cc1", "note": "[Example 334]", "IC50": 42}, {"smiles": "COCC(=O)NC(=O)N1CCN(Cc2cccc(OCCC3CCCCC3)c2)CC1", "note": "[Example 439]", "IC50": 25}]}]}
